For two molecules, EC50, Ki and Emax results are on record in US20230265151A1, “GIP/GLP1 CO-AGONIST COMPOUNDS” (priority 2020, published 2023).

Where two headings read alike, the source gives them in different places.

In assay [1] the target is T1, hGCGR (Homo sapiens, UniProt P47871).
T1 construct: expressed in transfected cells
Nature of the assay: Functional cAMP formation (HTRF) in HEK-293 clonal cells expressing hGCGR, 0.1% bovine casein, without or with 1.0% human serum albumin. The settings on record: cAMP, 37° C. The format is cell-based. The procedure, abridged:
(§1)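 Cells were stimulated with peptide for 30 min at 37° C, then intracellular cAMP was measured by competitive HTRF (665/620 nm ratio) and converted to nM using a cAMP standard curve. Relative EC50 and Emax came from four-parameter logistic fits of percent maximal response against peptide concentration.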
A general note: cAMP levels reflect the balance of adenylyl cyclase and phosphodiesterase activity.

The target of assay [2] is T2, human GLP-1 receptor (hGLP-1R) (Homo sapiens, UniProt P43220).
T2 construct: expressed in transfected cells; crude membranes
As to the kind of experiment: [125I]-GLP-1 binding, SPA with membranes of HEK293 cells expressing hGLP-1R.

Assay [3] has as its target T3, hGIPR (Homo sapiens, UniProt P48546).
T3 construct: expressed in transfected cells
T3 sequence (P48546 22-466): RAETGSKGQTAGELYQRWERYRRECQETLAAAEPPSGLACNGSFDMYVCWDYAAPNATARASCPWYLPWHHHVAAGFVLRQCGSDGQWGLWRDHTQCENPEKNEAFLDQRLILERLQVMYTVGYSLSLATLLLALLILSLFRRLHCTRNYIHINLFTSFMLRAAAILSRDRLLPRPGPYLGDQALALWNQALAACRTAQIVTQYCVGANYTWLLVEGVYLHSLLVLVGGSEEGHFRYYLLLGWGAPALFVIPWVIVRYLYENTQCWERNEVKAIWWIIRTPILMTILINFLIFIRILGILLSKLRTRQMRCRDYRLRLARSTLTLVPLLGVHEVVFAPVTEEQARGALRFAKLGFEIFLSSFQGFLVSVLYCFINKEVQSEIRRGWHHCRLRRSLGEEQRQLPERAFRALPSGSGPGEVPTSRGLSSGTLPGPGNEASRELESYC
Nature of the assay: Functional cAMP formation (HTRF) in HEK-293 clonal cells expressing hGIPR, 0.1% bovine casein, without or with 1.0% human serum albumin. The class given is cell-based. Particulars: for Emax: percent of maximal response to GIP(1-42)NH2; for EC50: cAMP, 0.1% bovine casein (no human serum albumin), geometric mean. An outline of the steps: as §1

Assay [4] concerns the target hGLP-1R (Homo sapiens, UniProt P43220). Nature of the assay: Functional cAMP formation (HTRF) in HEK-293 clonal cells expressing hGLP-1R, 0.1% bovine casein, without or with 1.0% human serum albumin. The settings on record: for EC50: cAMP, 37° C. Also noted: expressed in transfected cells. The class given is cell-based. An outline of the steps:
as §1

T1 sequence (P47871 26-477): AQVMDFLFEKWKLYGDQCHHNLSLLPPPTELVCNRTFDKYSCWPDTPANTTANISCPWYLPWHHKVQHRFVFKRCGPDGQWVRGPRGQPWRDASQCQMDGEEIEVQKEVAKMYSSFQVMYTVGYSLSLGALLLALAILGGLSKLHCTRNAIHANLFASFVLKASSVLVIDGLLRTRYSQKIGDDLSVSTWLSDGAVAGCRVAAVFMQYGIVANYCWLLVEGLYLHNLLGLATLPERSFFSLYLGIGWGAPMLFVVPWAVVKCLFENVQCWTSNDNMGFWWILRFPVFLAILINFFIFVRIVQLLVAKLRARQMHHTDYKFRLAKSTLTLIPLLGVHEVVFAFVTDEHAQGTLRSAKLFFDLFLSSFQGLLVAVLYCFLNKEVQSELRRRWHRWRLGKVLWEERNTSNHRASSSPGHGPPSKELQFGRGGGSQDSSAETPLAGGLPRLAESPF
Sequence of hGLP-1R (P43220 24-463): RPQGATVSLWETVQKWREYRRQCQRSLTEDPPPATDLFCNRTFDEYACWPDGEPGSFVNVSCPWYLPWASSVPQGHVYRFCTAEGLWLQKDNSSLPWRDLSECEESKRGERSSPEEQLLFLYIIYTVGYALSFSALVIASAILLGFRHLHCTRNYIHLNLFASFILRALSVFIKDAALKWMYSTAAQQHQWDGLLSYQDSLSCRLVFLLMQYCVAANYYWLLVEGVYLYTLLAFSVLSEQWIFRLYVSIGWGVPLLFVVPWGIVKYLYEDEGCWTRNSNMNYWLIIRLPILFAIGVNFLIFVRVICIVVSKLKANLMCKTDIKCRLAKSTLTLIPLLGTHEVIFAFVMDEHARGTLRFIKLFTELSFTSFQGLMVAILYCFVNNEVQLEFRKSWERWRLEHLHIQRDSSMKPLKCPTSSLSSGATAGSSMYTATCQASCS
T2 sequence (P43220 24-463): as above

A word on the EC50: it is the midpoint of the concentration-response curve. Usually Ki stands for a measure of affinity in units of concentration, obtained from inhibition or displacement. Usually Emax stands for the greatest response seen or fitted, relative to the assay's reference. Take `CCCCCCCCCCCC(=O)N[C@@H](CCC(=O)NCCOCCOCC(=O)NCCOCCOCC(=O)NCCOCCOCC(=O)NCCCC[C@H](NC(=O)[C@H](CCCN)NC(=O)[C@H](CC(=O)O)NC(=O)[C@H](CC(C)C)NC(=O)[C@](C)(CC(C)C)NC(=O)[C@@H](NC(=O)C(C)(C)NC(=O)[C@H](Cc1ccncc1)NC(=O)[C@H](CC(=O)O)NC(=O)[C@H](CO)NC(=O)[C@@H](NC(=O)[C@](C)(Cc1ccccc1F)NC(=O)[C@@H](NC(=O)CNC(=O)[C@H](CCC(=O)O)NC(=O)C(C)(C)NC(=O)[C@@H](N)Cc1ccc(O)cc1)[C@@H](C)O)[C@@H](C)O)[C@@H](C)CC)C(=O)N[C@@H](C)C(=O)N[C@@H](CCC(N)=O)C(=O)NC(C)(C)C(=O)N[C@@H](CCCN)C(=O)N[C@@H](Cc1ccccc1)C(=O)N[C@H](C(=O)N[C@H](CCC(=O)O)C(=O)N[C@@](C)(Cc1ccc(O)cc1)C(=O)N[C@@H](CC(C)C)C(=O)N[C@H](C(=O)N[C@@H](CCCCNC(=O)COCCOCCNC(=O)COCCOCCNC(=O)COCCOCCNC(=O)CC[C@H](NC(=O)CCCCCCCCCCC)C(=O)O)C(=O)NCC(=O)NCC(=O)N1CCC[C@H]1C(=O)N[C@@H](CO)C(=O)N[C@@H](CO)C(=O)NCC(=O)N[C@@H](C)C(=O)N1CCC[C@H]1C(=O)N1CCC[C@H]1C(=O)N1CCC[C@H]1C(=O)N[C@@H](CO)C(N)=O)[C@@H](C)CC)[C@@H](C)CC)C(=O)O` [Example 434]: the EC50 in assay [1] (0.1% bovine casein (no human serum albumin), geometric mean, read-out: hGCGR EC50, nM (SEM, n)) is over 9950 nM; in assay [1] (0.1% bovine casein and 1.0% human serum albumin, geometric mean (SEM, n), read-out: hGCGR EC50, nM (SEM, n)) it was over 9950 nM; in assay [3] (37° C., read-out: hGIPR EC50, nM (SEM, n)) it was 0.00704 nM; in assay [4] (0.1% bovine casein (no human serum albumin), geometric mean, read-out: hGLP-1R EC50, nM (SEM, n)) it was 0.0837 nM; in assay [4] (0.1% bovine casein and 1.0% human serum albumin, geometric mean (SEM, n), read-out: hGLP-1R EC50, nM (SEM, n)) it was 1.73 nM. Moreover, in assay [2] (human GLP-1R, geometric mean (SEM, n), read-out: Binding Affinity Ki, nM (SEM, n) hGLP-1R), the Ki came to 0.15 nM. Moreover, the Emax worked out at 97.5% in assay [3] (HEK293, cAMP, 37° C., 0.1% bovine casein and 1.0% human serum albumin, read-out: hGIPR Emax, % ± SEM); 98.3% in assay [3] (HEK293, cAMP, 37° C., 0.1% bovine casein, arithmetic mean, read-out: hGIPR Emax, % ± SEM).
Take `CC[C@H](C)[C@H](NC(=O)[C@H](CC(C)C)NC(=O)[C@](C)(Cc1ccc(O)cc1)NC(=O)[C@H](CCCCNC(=O)COCCOCCNC(=O)CC[C@H](NC(=O)CC[C@H](NC(=O)CC[C@H](NC(=O)CCCCCCCCCOc1ccc(C(=O)O)cc1)C(=O)O)C(=O)O)C(=O)O)NC(=O)[C@@H](NC(=O)[C@H](Cc1ccccc1)NC(=O)[C@H](CCCN)NC(=O)C(C)(C)NC(=O)[C@H](CCC(N)=O)NC(=O)[C@H](C)NC(=O)[C@H](CCC(N)=O)NC(=O)[C@H](CCCN)NC(=O)[C@H](CC(=O)O)NC(=O)[C@H](CC(C)C)NC(=O)[C@](C)(CC(C)C)NC(=O)[C@@H](NC(=O)C(C)(C)NC(=O)[C@H](Cc1ccncc1)NC(=O)[C@H](CC(=O)O)NC(=O)[C@H](CO)NC(=O)[C@@H](NC(=O)[C@](C)(Cc1ccccc1F)NC(=O)[C@@H](NC(=O)CNC(=O)[C@H](CCC(=O)O)NC(=O)C(C)(C)NC(=O)[C@@H](N)Cc1ccc(O)cc1)[C@@H](C)O)[C@@H](C)O)[C@@H](C)CC)[C@@H](C)CC)C(=O)N[C@@H](CCCCNC(=O)COCCOCCNC(=O)CC[C@H](NC(=O)CC[C@H](NC(=O)CC[C@H](NC(=O)CCCCCCCCCOc1ccc(C(=O)O)cc1)C(=O)O)C(=O)O)C(=O)O)C(=O)NCC(=O)NCC(=O)N1CCC[C@H]1C(=O)N[C@@H](CO)C(=O)N[C@@H](CO)C(=O)NCC(=O)N[C@@H](C)C(=O)N1CCC[C@H]1C(=O)N1CCC[C@H]1C(=O)N1CCC[C@H]1C(=O)N[C@@H](CO)C(N)=O` [Example 487]: the concentration for a half-maximal effect (EC50) in assay [1] (hGCGR EC50, nM (SEM, n), 0.1% bovine casein (no human serum albumin), geometric mean) was over 9950 nM; in assay [1] (hGCGR EC50, nM (SEM, n), 0.1% bovine casein and 1.0% human serum albumin, geometric mean (SEM, n)), over 9950 nM; in assay [3] (hGIPR EC50, nM (SEM, n), 37° C.) it was 0.0161 nM; in assay [4] (hGLP-1R EC50, nM (SEM, n), 0.1% bovine casein (no human serum albumin), geometric mean) it was 0.199 nM. Moreover, the affinity in assay [2], expressed as Ki, was 0.217 nM. The maximum response (Emax) in assay [3] (HEK293, read-out: hGIPR Emax, % ± SEM, cAMP, 37° C., 0.1% bovine casein and 1.0% human serum albumin) was 89.1%; in assay [4] (HEK293, read-out: hGLP-1R Emax, % ± SEM, cAMP, 37° C., 0.1% bovine casein, percent of maximal response to GLP-1(7-36)NH2, arithmetic mean) it was 116%.
